Results reported in paper PMC9919735, “Cupressus arizonica Greene: Phytochemical Profile and Cosmeceutical and Dermatological Properties of Its Leaf Extracts” (Molecules, 2023).

How the values were obtained:
[1] = target: T1, Collagenase enzyme, from Clostridium histolyticum (ChC); test: FALGPA hydrolysis, absorbance […] nm; type: biochemical, Hathewaya histolytica; conditions: Tricine buffer 50 mM, 400 mM NaCl, 10 mM CaCl2, pH 7.5, 15 min preincubation; positive control
T1 construct: gene colG; native enzyme preparation, ColG / ColH not distinguished

hyaluronidase enzyme = test: hyaluronic acid degradation, DMAB colorimetric, absorbance […] nm; type: biochemical; conditions: hyaluronic acid 1 mg/mL in 0.1 M acetate pH 3.5, CaCl2; positive control

| Parameters IC50 (μg/mL) / Hyaluronidase (hyaluronidase enzyme) [µg/mL] | SMILES | Parameters IC50 (μg/mL) / Collagenase [1] [µg/mL] |
| --- | --- | --- |
|  | O=c1c(O)c(-c2ccc(O)c(O)c2)oc2cc(O)cc(O)c12 [Quercetin] | 24.83 ± 1.8 |
| 14.46 ± 0.6 | O=c1cc(CO)occ1O [Kojic acid] |  |
